Test results from patent US6348445B1, “Biologically active peptides with reduced toxicity in animals and a method for preparing same” (priority 1992, dated 2002).
≈ marks a conversion by molar mass, not a printed value. Where two headings read alike, the source gives them in different places. Where a SMILES comes first, the peptide text is derived from it. Where no end group is shown, it is not given here. [ ]: non-standard residue; d: D form. The star is where a group is joined. Octanoyl = CCCCCCCC(=O)*; Orn = NCCC[C@H](N)C(=O)O

How the values were obtained:
S. aureus ATCC 29213 = type: cell-based
[1] = system: lipopolysaccharide from E. coli serotype 0111:B4; test: survival of mice after lipopolysaccharide and galactosamine; type: in vivo
Method: Oct-(SEQ ID NO: 143)—NH2 was injected intravenously into male C57BL/6J mice (average body weight 20.1 g) approximately two minutes prior to intraperitoneal injection of a solution of lipopolysaccharide (either 0.1 μg or 0.5 μg/mouse) from E. coli serotype 0111:B4 and galactosamine (8 mg/mouse). […] When these doses were administered prior to the administration of 0.1 μg lipopolysaccharide/mouse, the results were 40%, 90%, 100%, 100%, and 100% survival at five days post-lipopolysaccharide administration, respectively.

E. coli strain 21915-1 = test: survival of mice inoculated intraperitoneally with live E. coli; type: in vivo; conditions: i.v. at 1 and 5 hours post-inoculation, 10 mice
Method: CD-1 male mice (average body weight, 22.8g) were inoculated with live E. coli strain 21915-1 (2.3×10^5 CFU mouse) by injection intraperitoneally. Oct-(SEQ ID NO: 143)—NH2 then was injected intravenously via the tail vein at 1 and 5 hours post-inoculation. Control mice were inoculated and treated with 0.9% saline. Each different treatment group had 10 mice per group. All control mice died.

C. albicans ATCC 90028 = type: cell-based; conditions: Table IV
Method: (§1) The procedure for the anti-bacterial assay is based upon the guidelines of the National Committee for Clinical Laboratory Standards, Document M7-T2, Volume 8, No. 8, 1988, which document is entirely incorporated herein by reference.
(§2) Stock solutions of peptides, with and without the appropriate substitutions, were prepared at a concentration of 512 μg/ml in sterile deionized distilled water and stored at −70° C.
(§3) The stock peptide solution was diluted in serial dilutions (1:2) down the wells of a microtiter plate so that the final concentrations of peptides in the wells were 0.25, 0.50, 1, 2, 4, 8, 16, 32, 64, 128 and 256 μg/ml. 1-5×10^5 CFUs/ml of either S. aureus ATCC 25923, E. coli ATCC 25922, P. aeruginosa ATCC 27853, or C. albicans, were added to the wells in full strength Mueller Hinton broth (BBL 11443) from a mid-log culture. The inoculum was standardized spectrophotometrically at 600 nm and was verified by colony counts. The plates were incubated for 16-20 hours at 37° C., and the minimal inhibitory concentration (MIC) for each peptide was determined. Minimal inhibitory concentration is defined as the lowest concentration of peptide which produces a clear well in the microtiter plate. The minimal inhibitory concentration of each of the peptides with and/or without the appropriate substitutions is given in Table I below.
(§4) The in vitro anti-microbial activities of the methane sulfonate derivatives were determined according to the methods described in Examples 1 and 2. The activities against ATCC strains of S. aureus, E. coli, P. aeruginosa, and C. albicans, and the hemolysis of red blood cells were compared to the parent compound (Table IV). The activities for Compound 843 (Oct-SEQ ID NO:143) methane sulfonate against clinical strains of P. aeruginosa isolated from cystic fibrosis patients were compared to the parent compound (Table V). The activity for Compound 469 (Oct-SEQ ID NO:27) methane sulfonate against P. gingivalis was compared to the parent compound (Table VI).

C. albicans = type: cell-based; conditions: C. albicans; Table I
Outline: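 Peptides serially diluted 1:2 to final 0.25–256 μg/ml; inoculum 1-5×10^5 CFU/ml from mid-log culture in full-strength Mueller Hinton broth. Incubated 16-20 h at 37° C. MIC taken as lowest peptide concentration giving a clear well.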

red blood cells = test: hemolysis of red blood cells; type: cell-based
Method: as §4

[2] = system: E. coli ATCC strain 25922; test: Minimal Inhibitory Concentration, microtiter broth dilution; type: cell-based
Outline: (§5)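 Peptides serially diluted 1:2 to final 0.25–256 μg/ml in Mueller Hinton broth, inoculated with 1-5×10^5 CFUs/ml from mid-log culture. Incubated 16-20 hours at 37° C. MIC = lowest peptide concentration giving a clear well.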

[3] = system: P. aeruginosa strain ATCC 27853; type: cell-based
Outline: as §5

[4] = system: clinical strains of P. aeruginosa isolated from cystic fibrosis patients; test: MIC against clinical isolates of P. aeruginosa; type: cell-based, Pseudomonas aeruginosa; conditions: clinical isolate
Method: as §1, §2, §3, §4

[5] = system: S.aureus strain ATCC 25923; test: Minimal Inhibitory Concentration, microtiter broth dilution; type: cell-based; conditions: Mueller Hinton broth, 16-20 hours at 37° C.
Excerpt: Table I, which follows, indicates the Minimal Inhibitory Concentration (MIC) in […] of various peptides against S.aureus strain ATCC 25923(S), P. aeruginosa strain ATCC 27853(P), E. coli ATCC strain 25922(E), and C. 4albicans (CA). […] The peptides are unsubstituted at the N-terminal; substituted with an acetyl group at the N-terminal, as indicated by Ac-; substituted with an octanoyl group at the N-terminal, as indicated by Oct-; substituted with spinogosine, as indicated by Sph-; substituted with a succinyl group, as indicated by Suc-; substituted with a hexanoyl group, as indicated by Hex-; substituted with a heptanoyl group, as indicated by Hep-; substituted with a valeryl group, as indicated by Val-; substituted with a myristryl group, as indicated by Myr-; or substituted with an ibuprofyl group, as indicated by Ibu-;
as §1, §2, §3

[6] = maximal tolerated dose, single intravenous administration of Compound 1324; type: in vivo, mice; conditions: mouse, in vivo; single intravenous bolus, CD-1 mice; read-out: MTD i.v. (maximum tolerated dose, non-lethal)
Method: Mice received single intravenous administrations of Compound 1324, the methane sulfonate analogue of Compound 843, and were monitored for survival for at least 4 days. There were no deaths at a dose of less than or equal to 180 mg/kg.
To determine the maximal tolerated dose (MTD) and estimate the lethal dose 50% (LD50) of Compound 1324 sodium when administered intravenously in a single-bolus in mice.
Animals: On arrival and study initiation, three groups Thirty-seven male CD-1 mice (Charles River Lab)had average body weights of 39, 28 and 28 gm, respectively.
Solution Prep: A 120 mg/ml of active Compound 1324 (active moiety corrected for) was made in saline. All concentrations from 5 mg/ml to 80 mg/ml were dilutions of the 120 mg/ml solution with saline. The highest concentration used in the intravenous administration was 20 mg/ml.
Mice were randomly assigned to one of ten groups (4 mice per group, except the highest dose group which only had one mouse). Mice were administered intravenously 10 ml/kg of either 0 (saline), 5, 6, 7, 8, 14, 16, 18, or 20 mg/ml solution for doses of […]. One mouse received 14.1 ml/kg of a 20 mg/ml solution for a dose of 282 mg/kg. Mice were monitored for survival for at least four days post-administration.

[7] = system: MDA-435 human breast carcinoma cells; type: cell-based; conditions: 24 h
Method: (§6) Human lung carcinoma cells, A-549 (ATCC), and human breast carcinoma cells, MDA-435 (from Sandoz), were grown in Ham's F12K medium (GIBCO-BRL) supplemented with […] fetal bovine serum. Human chronic myelogenous leukemia cells, K-562 (ATCC), were maintained in RPMI 1640 medium (GIBCO-BRL) supplemented with 10% fetal bovine serum. Human melanoma cell line, WM 1617 (from the Wistar Institute), was maintained in 2% Tumor media.
(§7) Cytotoxicity assays were performed on the cell lines described above using CytoLite (Packard Instrument Company) following the manufacture's instruction. Briefly, 2×10^4cells/well were seeded into black, 96-well ViewPlates (Packard Instrument Company) in 100 μl/well growth medium. Ser. dilutions of Magainin peptides were then added into the cells and the plates incubated for 24 hours in a humidified 5% CO2 atmosphere at 37° C. Following incubation, 25 μl/well of CytoLite activator solution was added followed by 125 μl/well of amplifier solution. Luminescence was measured on TopCount Microplate Scintillation and Luminescence counter (Packard Instrument Company) using a 1 second count time in SPC (single photon counting) mode at 25 ° C. All assays were performed in triplicate. The peptides tested in this assay were MSI-78(SEQ ID NO: 154 —NH2), MSI-1858(SEQ ID NO: 154 —NH2 Methane Sulfonate), MSI-344(SEQ ID NO: 154 —OH) and MSI-1857(SEQ ID NO: 154 —OH Methane Sulfonate). The results of these assays are shown in FIGS. 2-9 with the corresponding IC50 values in Table VIII. In all cases the activity of the methane sulfonated peptide was as good or better than the parent peptide as indicated by both the survival curves and the IC50 values.

[8] = system: WM 1617 human melanoma cells; type: cell-based; conditions: 24 h
Method: as §6, §7

[9] = system: K-562 human chronic myelogenous leukemia cells; type: cell-based; conditions: 24 h
Method: as §6, §7

[10] = system: A-549 human lung carcinoma cells; type: cell-based; conditions: 24 h
Method: as §6, §7

## CCCCCCCC(=O)N[C@@H](CCCN)C(=O)N[C@@H](CCCN)C(=O)N[C@@H](CC(C)C)C(=O)N[C@@H](CC(C)C)C(=O)N[C@@H](CCCN)C(=O)N[C@@H](CCCN)C(=O)N[C@@H](CC(C)C)C(=O)N[C@@H](CCCN)C(=O)N[C@@H](CCCN)C(=O)N[C@@H](CC(C)C)C(N)=O [Oct-(SEQ ID NO: 143)-NH2] (Octanoyl-[Orn][Orn]LL[Orn][Orn]L[Orn][Orn]L-NH2)
S. aureus ATCC 29213; Table IV
  MIC S. aureus ATCC 29213: 16 µg/mL (≈ 12.5 µM)
[1]; 5 mg/kg i.v. (by order of the list), 0.1 μg lipopolysaccharide/mouse
  survival at five days post-lipopolysaccharide administration: 90%
[1]; 5 mg/kg i.v., 0.5 μg lipopolysaccharide/mouse
  survival at five days post-lipopolysaccharide administration: 0%
[1]; 7.5 mg/kg i.v. (by order of the list), 0.1 μg lipopolysaccharide/mouse
  survival at five days post-lipopolysaccharide administration: 100%
[1]; 7.5 mg/kg i.v., 0.5 μg lipopolysaccharide/mouse
  survival at five days post-lipopolysaccharide administration: 30%
[1]; 10 mg/kg i.v. (by order of the list), 0.1 μg lipopolysaccharide/mouse
  survival at five days post-lipopolysaccharide administration: 100%
[1]; 10 mg/kg i.v., 0.5 μg lipopolysaccharide/mouse
  survival at five days post-lipopolysaccharide administration: 0%
[1]; 12.5 mg/kg i.v. (by order of the list), 0.1 μg lipopolysaccharide/mouse
  survival at five days post-lipopolysaccharide administration: 100%
[1]; 12.5 mg/kg i.v., 0.5 μg lipopolysaccharide/mouse
  survival at five days post-lipopolysaccharide administration: 50%
[1]; 15 mg/kg i.v., 0.5 μg lipopolysaccharide/mouse
  survival at five days post-lipopolysaccharide administration: 60%
E. coli strain 21915-1; 1 mg/kg in toto
  survival at six days post-inoculation: 20%
E. coli strain 21915-1; 5 mg/kg in toto
  survival at six days post-inoculation: 40%
E. coli strain 21915-1; 10 mg/kg in toto
  survival at six days post-inoculation: 90%
E. coli strain 21915-1; 20 mg/kg in toto
  survival at six days post-inoculation: 90%
C. albicans ATCC 90028
  MIC C. albicans ATCC 90028: 64 µg/mL (≈ 50 µM)
C. albicans
  Minimal Inhibitory Concentration CA: 16 µg/mL
Red blood cells
  % Hemolysis (500 μg/ml): 25%
[2]; E. coli ATCC strain 25922, Table I
  Minimal Inhibitory Concentration E: 16 µg/mL
[2]; Table IV
  MIC E. coli ATCC 25922: 4 µg/mL (≈ 3.12 µM)
[3]; P. aeruginosa strain ATCC 27853, Table I
  Minimal Inhibitory Concentration P: 2 µg/mL
[3]; Table IV
  MIC P. aeruginosa ATCC 27853: 2 µg/mL (≈ 1.56 µM)
[3]; Table V
  MIC Pseudomonas aeruginosa ATCC 27853: 4 µg/mL (≈ 3.12 µM)
[4]
  MIC Pseudomonas aeruginosa LS-31: 16 µg/mL (≈ 12.5 µM)
  MIC Pseudomonas aeruginosa LS-40: 4 µg/mL (≈ 3.12 µM)
  MIC Pseudomonas aeruginosa LS-43: 2 µg/mL (≈ 1.56 µM)
[5]
  Minimal Inhibitory Concentration S: 16 µg/mL
[6]
  MTD: 20 mg/kg

## GIGKFLKKAKKFGKAFVKILKK [MSI-78]
S. aureus ATCC 29213; ATCC 29213
  MIC S. aureus ATCC 29213: 16 µg/mL
[7]
  IC50: 4 µM
[8]
  IC50: 3000 nM
[9]
  IC50: 9 µM
[10]
  IC50: 3000 nM
[2]; ATCC strain 25922
  MIC E. coli ATCC 25922: 32 µg/mL
[3]; ATCC 27853
  MIC P. aeruginosa ATCC 27853: 16 to 32 µg/mL
